What was measured:
[1] = test system: double strand RNA (SEQ ID NO: 1 hybridized with SEQ ID NO: 3); test: Fluorescence titration experiment using double strand RNA; type: binding; settings: 1.0 μM compound, double strand RNA 0.0-1.0 μM
Protocol: (§1) Then, changes in fluorescence intensities were observed.
Firstly, X2S, X2S(3), X2S(4), X2S(5), X2S(2-Me), and 3,6-X2S(2) were respectively mixed with cacodylate buffer solutions (sodium cacodylate: 10 mM, pH 7.0; NaCl: 100 mM) each at 1.0 μM, so that solutions of the respective compounds were obtained.
As the double strand RNA, an RNA as in FIG. 2 having N representing no base was used. Specifically, an RNA formed by hybridization of an RNA having the base sequence shown in SEQ ID NO: 1 with an RNA having the base sequence shown in SEQ ID NO: 3 was used. The RNA was added to each of the solutions of the above compositions in steps at 0.0 μM, 0.2 μM, 0.4 μM, 0.8 μM, and 1.0 μM.
Each of the solutions to which the RNAs were added was irradiated with light, and a fluorescence intensity was measured. A device used for measuring the fluorescence intensity was the same as that used in Example 13. A variation in a slit width was set to ±3.0 nm during the excitation, and to ±3.0 nm during the measurement of fluorescence.
In each of FIGS. 25 to 30, the horizontal axis represents the fluorescence wavelength, whereas the vertical axis represents the fluorescence intensity.
FIG. 31 is a graph illustrating a relationship between a concentration of the double strand RNA added and a fluorescence intensity of each compound. […]

RRE = test: Fluorescence titration / evaluation of binding with RRE; set-up: species or system HIV-1; settings: 1.0 μM compound; for reduction of fluorescence intensity (residual fluorescence intensity) on binding RRE: RRE 0.0-1.0 μM; for difference in quenching efficiency between RRE and double strand RNA: FIGS. 41 and 42
Protocol: In this Example, binding between RRE and X2S was evaluated by a method identical to the method in Example 2.
The […] of RRE is shown in SEQ ID NO: 8. […] RRE was purchased from Hokkaido System Science Co., Ltd.
Firstly, the X2S solution obtained in Example 1 was diluted with a cacodylate buffer solution (sodium cacodylate: 10 mM, pH 7.0; NaCl: 100 mM), so that a concentration of X2S became 2 μM. To the 2-μM X2S solution thus obtained, RRE was added in steps at 0 μM, 1 μM, 2 μM, 3 μM, 4 μM, 5 μM, 6 μM, and 8 μM. Further, a fluorescence intensity of the 2-μM X2S solution was measured at each concentration. The fluorescence intensity was measured in the same manner as in Example 2.
FIG. 7 is a view illustrating a result of evaluation of binding between X2S and RRE. In FIG. 7, the horizontal axis represents the fluorescence wavelength, whereas the vertical axis represents the fluorescence intensity. […] Other figures include such arrows for results of measurements of fluorescence intensities.
FIG. 8 is a view plotting the fluorescence intensities at a measured wavelength of 453 nm shown in the result illustrated in FIG. 7. The horizontal axis represents the concentration of RRE, whereas the vertical axis represents the fluorescence intensity.
as §1
Firstly, X2S, X2S(3), X2S(4), X2S(5), X2S(2-Me), and 3,6-X2S(2) were respectively mixed with cacodylate buffer solutions (sodium cacodylate: 10 mM, pH 7.0; NaCl: 100 mM) each at 1.0 μM, so that solutions of the respective compounds were obtained. RRE used in this Example was the same as that used in Example 4. RRE was added to each of the solutions of the respective compounds in steps at 0.0 μM, 0.2 μM, 0.4 μM, 0.8 μM, and 1.0 μM.
Each of the solutions to which RRE was added was irradiated with light, and a fluorescence intensity was measured. A device used for measuring the fluorescence intensity was the same as that used in Example 13. A variation in a slit width was also the same as that in Example 14.
FIG. 39 is a graph illustrating a relationship between a concentration of RRE added and a fluorescence intensity of each compound. Further, FIG. 39 is also a view plotting the fluorescence intensities of the respective fluorescence peaks shown in the results illustrated in FIGS. 33 to 38. FIG. 40 is a view plotting residual fluorescence intensities (%) which were obtained based on the results shown in FIGS. 33 to 38, assuming that the fluorescence intensities of the respective fluorescence peaks observed at a concentration of 0.0 μM of RRE were 100%. In each of FIGS. 39 and 40, the horizontal axis represents the concentration of the RNA. In FIG. 39, the vertical axis represents the fluorescence intensity. In FIG. 40, the vertical axis represents the residual fluorescence intensity (%).
FIG. 41 is a view plotting values obtained by dividing (i) the residual fluorescence intensities (%) obtained in the case involving use of the double strand RNA by (ii) the residual fluorescence intensities (%) obtained in the case involving use of RRE. That is, FIG. 41 is a view plotting values obtained by dividing (i) the residual fluorescence intensity (%) shown in FIG. 32 by (ii) the residual fluorescence intensities (%) shown in FIG. 40. FIG. 42 is a view plotting values obtained by subtracting (i) the residual fluorescence intensities (%) obtained in the case involving use of RRE from (ii) the residual fluorescence intensities (%) obtained in the case involving use of the double strand RNA. That is, FIG. 42 is a view plotting values obtained by subtracting (i) the residual fluorescence intensities (%) shown in FIG. 40 from (ii) the residual fluorescence intensities (%) shown in FIG. 32.
In this Example, 1-Pyrenemethanamide, hydrochloride was caused to bind to a double strand RNA or RRE. Then, a change in a fluorescence intensity was observed. […]

| SMILES | reduction of fluorescence intensity (residual fluorescence intensity) on binding double strand RNA [1] | reduction of fluorescence intensity (residual fluorescence intensity) on binding RRE (RRE) | difference in quenching efficiency between RRE and double strand RNA (RRE) |
| --- | --- | --- | --- |
| CC(N)COc1ccc2oc3ccc(OCC(C)N)cc3c(=O)c2c1 (stereo not drawn) [X2S(3), 2,7-bis(2-aminopropoxy)xanthen-9-one] | particularly high reduction rates | particularly high reduction rates | greatest |
| CCC(N)COc1ccc2oc3ccc(OCC(N)CC)cc3c(=O)c2c1 (stereo not drawn) [X2S(4), 2,7-bis(2-aminobutoxy)xanthen-9-one] | particularly high reduction rates | particularly high reduction rates | greatest |
